Earlier results, collected in article PMC6005628, “Molecular genetic characteristics of influenza A virus clinically isolated during 2011‐2016 influenza seasons in Korea” (Influenza and Other Respiratory Viruses, 2018).

Test system: NA protein with single I222V/M substitution

For `CCOC(=O)C1=C[C@@H](OC(CC)CC)[C@H](NC(C)=O)[C@@H](N)C1` [oseltamivir], the “resistance associated with NA substitution” value is listed as “marginal levels of resistance”.
